In US8921571B2, “Pyrrolysine analogs” (The Ohio State University, priority 2009, dated 2014):
Counter-ions that a name gives are not always drawn. Like-named read-outs stand apart in the source and are kept apart here.

Legend:
recombinant protein = assay: incorporation into a recombinant protein; assay type: cell-based
[1] = system: UAG stop codon readthrough of mCherry (Lys55) with PylT/PylS genes from Methanosarcina mazei; assay: modified mCherry fluorescence protein assay for stop codon readthrough (Example 2); assay type: cell-based, E. coli strain BL21(DE3); settings: for mCherry production: Terrific Broth
Protocol: The site-specific incorporation efficiencies of these analogs were measured with a modified fluorescence protein assay using a fluorescent protein as a reporting gene to monitor stop codon readthrough. This approach was made compatible with large scale measurements by 1) using mCherry instead of GFP to reduce the fluorescence background introduced by growth medium, 2) growing the host cells in 24-well plates to facilitate handling of multiple samples and minimize deviation between samples, and 3) measuring the fluorescence intensity of the cell culture in the plates to save the labor of electrophoresis and western blotting.
In this study, the Lys55 codon of mCherry was site-specifically mutated to UAG and inserted into the plasmid pPylST harbouring the pyrrolysine tRNA (PylT) and synthetase (PylS) genes from Methanosarcina mazei. E. coli strain BL21(DE3) transformed with this plasmid was grown in the Terrific Broth medium supplied with 2 mM pyrrolysine analog to be examined. […] These differences are seen in FIG. 3, where the results have been normalized against analog 3. Similar results were observed when the supplied analog concentration varied from 0.5 mM to 20 mM.
As analogs 4-6 were prepared and screened as ˜1:1 mixtures of diastereomers, we carried out further readthrough experiments with isomerically pure samples of 6 prepared from commercially available (R)- and (S)-propargylglycines. The readthrough efficiencies of L-6, D-6 and the enantiomer mixture were tested at various concentrations. […] This is seen in FIG. 4. […] One explanation is that the less efficient incorporable isomer L-6 is a competitive inhibitor of D-6.
The effect of the growth medium pH on the readthrough efficiency of D-6 was investigated using the modified mCherry assay. […] When 2 mM D-6 was used as substrate, the production of full-length mCherry increased as the pH of the growth medium increased. The total amount of produced mCherry peaked at pH 8.5 and dropped a little at pH 9.0 due to a lower cell density.

[2] = system: UAG codon readthrough of mCherry (Lys55 codon mutated to UAG) with PylT/PylS; assay: mCherry UAG codon readthrough assay (Example 1); assay type: cell-based, E. coli strain BL21(DE3); settings: for readthrough of the UAG codon: Terrific Broth medium, varying concentrations
Protocol: In order to evaluate the UAG codon readthrough efficiency for the two diastereomers, the brightly emitting red fluorescent protein, mCherry, was employed as a reporter. Briefly, the Lys55 codon of this protein was site-specifically mutated to UAG and inserted into the plasmid pPylST harbouring the pyrrolysine tRNA (PylT) and synthetase (PylS) genes. E. coli strain BL21(DE3) transformed with this plasmid was grown in the Terrific Broth medium supplied with either the (S,S)-isomer or (R,S)-isomer at varying concentrations. […] This is seen in the graph of FIG. 1, where the relative fluorescence of the (S,S)-isomer was higher at all concentrations.

[3] = 2 mM analog, normalized against analog 3, ~1:1 mixture of diastereomers

SMILES: CC1(CC(=O)NCCCC[C@H](N)C(=O)O)N=N1 [Formula (11), N^6-(2-(3-Methyl-3H-diazirin-3-yl)acetyl)lysine trifluoroacetate]
- incorporation into a recombinant protein (recombinant protein): incorporated into a recombinant protein

SMILES: [N-]=[N+]=NCC(=O)NCCCC[C@H](N)C(=O)O [Formula (10), N^6-(Azidoacetyl)lysine trifluoroacetate]
- readthrough efficiency, fold less efficient than analog 3 [1, 3]: 30 fold

SMILES: C#CCCC(=O)NCCCC[C@H](N)C(=O)O [Formula 7]
- mCherry production ([1]; 2 mM analog): no detectable mCherry production

SMILES: C#CCC(N)C(=O)NCCCC[C@H](N)C(=O)O (stereo partly drawn) [Formula 6]
- readthrough efficiency (in words) [1]: best substrate
- readthrough efficiency, more efficient than analog 3 [1, 3]: 69%

SMILES: C#CCC(O)C(=O)NCCCC[C@H](N)C(=O)O (stereo partly drawn) [Formula 5]
- mCherry production ([1]; 2 mM analog): no detectable mCherry production

SMILES: N[C@H](CS)C(=O)NCCCC[C@H](N)C(=O)O [Formula (1)]
- readthrough of the UAG codon [2]: enabled readthrough of the UAG codon
- readthrough efficiency, comparison of the two isomers ([2]; versus (R,S)-isomer, FIG. 1): much better substrate

SMILES: C#CC[C@@H](N)C(=O)NCCCC[C@H](N)C(=O)O [Formula D-6]
- readthrough efficiency (in words) [1]: highly efficient
- readthrough efficiency, fold more efficient than L-6 ([1]; isomerically pure samples, various concentrations, FIG. 4): 35 fold

SMILES: N[C@@H](CCCCNC(=O)[C@@H](N)CS)C(=O)O [Formula (2)]
- readthrough of the UAG codon [2]: enabled readthrough of the UAG codon

SMILES: C#CCC(N)C(=O)NCCCC[C@H](N)C(=O)O (stereo partly drawn) [Formula (6)]
- readthrough efficiency (in words) ([1]; listed as enantiomer mixture): moderate efficiency
